Assay results published in patent publication US20240270762A1, “PENICILLIN-BINDING PROTEIN INHIBITORS” (priority 2021, published 2024).
In brackets after ≈: the same amount, converted by molar mass.

Assays:
[1] = target: T1, PBP3 from Escherichia coli (K-12) (Escherichia coli, UniProt P0AD68); test: Bocillin-FL fluorescence polarization competition binding, E. coli PBP3
T1 construct: made in house
In short: (§1)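 Purified PBP was preincubated with inhibitor (E. coli PBP3 1.5 μM, 30 min; P. aeruginosa PBP3 0.75 μM, A. baumannii PBP3 0.2 μM and PBP1a 1 μM, 15 min), then Bocillin-FL (0.1 μM; 0.05 μM for PBP1a) added and FP read up to 60 min. EC50 = 50% loss of bound probe.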

[2] = target: T2, PBP3 from Pseudomonas aeruginosa (PAO1) (Pseudomonas aeruginosa, UniProt G3XD46); test: Bocillin-FL fluorescence polarization competition binding, P. aeruginosa PBP3; conditions: Binding affinity to P. aeruginosa PBP3; fluorescence polarization competition binding assay using Bocillin-FL; read-out: P. aeruginosa PBP3 Potency
T2 construct: made in house
T2 sequence (G3XD46 whole entry): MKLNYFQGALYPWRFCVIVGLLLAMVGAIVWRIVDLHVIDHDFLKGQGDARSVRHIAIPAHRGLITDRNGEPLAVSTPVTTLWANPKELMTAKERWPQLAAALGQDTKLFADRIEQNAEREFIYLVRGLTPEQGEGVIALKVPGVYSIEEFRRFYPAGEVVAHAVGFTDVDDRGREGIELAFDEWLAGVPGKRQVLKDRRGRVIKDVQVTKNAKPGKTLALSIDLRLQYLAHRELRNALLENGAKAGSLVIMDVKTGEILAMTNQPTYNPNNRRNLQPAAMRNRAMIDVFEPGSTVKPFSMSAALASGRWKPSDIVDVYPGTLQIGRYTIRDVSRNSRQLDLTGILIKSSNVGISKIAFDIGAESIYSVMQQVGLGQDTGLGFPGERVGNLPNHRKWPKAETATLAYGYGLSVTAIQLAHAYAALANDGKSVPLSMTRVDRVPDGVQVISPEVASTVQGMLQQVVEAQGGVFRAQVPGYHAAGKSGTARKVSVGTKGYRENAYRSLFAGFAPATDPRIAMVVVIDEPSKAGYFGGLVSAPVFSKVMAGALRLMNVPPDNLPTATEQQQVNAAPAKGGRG
In short: as §1

[3] = system: A. baumannii ATCC 19606; test: microbe, parasite or virus in culture; assay type: cell-based; conditions: Acinetobacter baumannii, ATCC19606, read-out: MIC, A. baumannii ATCC 19606
[4] = system: P. aeruginosa ATCC 35151; test: microbe, parasite or virus in culture; assay type: cell-based; conditions: Pseudomonas aeruginosa, ATCC35151, read-out: Minimum inhibitory concentration, P. aeruginosa ATCC 35151
[5] = system: P. aeruginosa (ΔmexAB-oprM); test: Broth microdilution MIC in iron-depleted CAMHB (IDM); assay type: cell-based; conditions: Pseudomonas aeruginosa; iron-depleted CAMHB (IDM); […]; read-out: Minimum inhibitory concentration, P. aeruginosa ΔmexAB-oprM
[6] = system: P. aeruginosa CDC-0090; test: microbe, parasite or virus in culture; assay type: cell-based; conditions: Pseudomonas aeruginosa, CDC0090, read-out: Minimum inhibitory concentration, P. aeruginosa CDC-0090
[7] = system: A. baumannii CDC-0083; test: microbe, parasite or virus in culture; assay type: cell-based; conditions: Acinetobacter baumannii, CDC0083, read-out: MIC, A. baumannii CDC-0083
[8] = system: B. humptydooensis ATCC BAA-2767; test: microbe, parasite or virus in culture; assay type: cell-based; conditions: Burkholderia humptydooensis, ATCCBAA2767, read-out: Minimum inhibitory concentration (MIC), B. humptydooensis ATCC BAA-2767
[9] = system: N. gonorrhoeae FA1090; test: Liquid broth MIC in Fastidious broth; conditions: Neisseria gonorrhoeae, FA1090, read-out: Minimum Inhibitory Concentration (MIC), N. gonorrhoeae FA 1090
[10] = system: N. gonorrhoeae WHO L; test: Liquid broth MIC in Fastidious broth; conditions: Neisseria gonorrhoeae, read-out: Minimum Inhibitory Concentration (MIC), N. gonorrhoeae WHO L
[11] = system: N. gonorrhoeae WHO M; test: Liquid broth MIC in Fastidious broth; conditions: Neisseria gonorrhoeae, read-out: Minimum Inhibitory Concentration (MIC), N. gonorrhoeae WHO M
Experimental: Liquid broth-based assays were used for antibacterial testing of PBP inhibitors in Neisseria gonorrhoeae. Briefly, cryo-preserved bacterial cultures of clinical strains were streaked for isolation on Chocolate Agar (72 g/L (2×) GC Agar Base (BD #228950) and 2% (2×) Hemoglobin was autoclaved at 121° C. for 20 minutes to sterilize. Once cooled to ˜50° C. the 2×GC Agar Base and 2× Hemoglobin solutions are combined and 1% IsoVitaleX Enrichment (BD #211876) was added to the solution). Strains were incubated at 36° C. and 5% CO2 to allow growth of colonies, 24 hours before inoculum preparation. 2-fold serial dilutions of test compounds were conducted in a 96 well plate with a final volume of 75 μL per well at 2-fold the final desired concentration in Fastidious broth (Remel #R07664). For preparation of assay inoculum, a direct suspension was prepared by aseptically swabbing 10-15 colonies from agar plates into culture tubes containing 2 mL of fresh sterile saline. After the dilution plates were set up, direct suspensions were then diluted in a cuvette containing sterile saline and the optical density was measured at 600 nm. Inocula were diluted such that 75 μL of this culture in Fastidious broth results in a starting bacterial concentration of 5×10^5 CFU/mL when added to the dilution plates. The plates were incubated for ˜24 hours at 36° C. and 5% CO2.

[12] = system: N. gonorrhoeae WHO K; test: Liquid broth MIC in Fastidious broth; conditions: Neisseria gonorrhoeae, read-out: Minimum Inhibitory Concentration (MIC), N. gonorrhoeae WHO K
[13] = system: N. gonorrhoeae WHO X; test: Liquid broth MIC in Fastidious broth; conditions: Neisseria gonorrhoeae, read-out: Minimum Inhibitory Concentration (MIC), N. gonorrhoeae WHO X
[14] = system: N. gonorrhoeae WHO Z; test: Liquid broth MIC in Fastidious broth; conditions: Neisseria gonorrhoeae, read-out: Minimum Inhibitory Concentration (MIC), N. gonorrhoeae WHO Z
[15] = system: N. gonorrhoeae CDC-0197; test: Liquid broth MIC in Fastidious broth; conditions: Neisseria gonorrhoeae, CDC0197, read-out: Minimum Inhibitory Concentration (MIC), N. gonorrhoeae CDC-0197

T1 sequence (P0AD68 1-577): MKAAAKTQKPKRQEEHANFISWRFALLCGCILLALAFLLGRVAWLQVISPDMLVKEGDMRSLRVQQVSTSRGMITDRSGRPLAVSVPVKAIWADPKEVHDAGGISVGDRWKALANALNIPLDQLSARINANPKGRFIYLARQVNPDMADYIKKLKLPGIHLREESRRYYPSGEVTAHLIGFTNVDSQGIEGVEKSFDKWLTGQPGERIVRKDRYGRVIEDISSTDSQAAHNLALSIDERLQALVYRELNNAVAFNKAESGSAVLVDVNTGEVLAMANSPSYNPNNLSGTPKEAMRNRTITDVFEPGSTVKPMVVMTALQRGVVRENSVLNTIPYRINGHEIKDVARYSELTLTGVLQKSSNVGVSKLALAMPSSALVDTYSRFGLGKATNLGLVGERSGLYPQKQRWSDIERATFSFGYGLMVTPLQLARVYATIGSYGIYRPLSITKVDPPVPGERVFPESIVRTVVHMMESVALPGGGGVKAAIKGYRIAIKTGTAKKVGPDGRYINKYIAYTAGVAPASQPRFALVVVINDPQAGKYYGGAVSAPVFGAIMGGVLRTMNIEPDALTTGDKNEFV

Compound: O=C(NCCN1CCN(C(=O)NC(C(=O)N[C@H]2Cc3ccc(F)c(C(=O)O)c3OB2O)c2cc(F)c(O)c(O)c2Cl)C(=O)C1=O)c1cccc(O)c1 (stereo partly drawn) [Example 215, (3R)-3-(2-(2-chloro-5-fluoro-3,4-dihydroxyphenyl)-2-(4-(2-(3-hydroxybenzamido)ethyl)-2,3-dioxopiperazine-1-carboxamido)acetamido)-7-fluoro-2-hydroxy-3,4-dihydro-2H-benzo[e][1,2]oxaborinine-8-carboxylic acid]
- EC50 [1]: < 10 µM
- IC50 [2]: < 10 µM
- MIC [3]: < 1 µg/mL
- MIC [4]: < 1 µg/mL
- MIC [5]: < 1 µg/mL
- MIC [6]: < 1 µg/mL
- MIC [7]: > 128 µg/mL
- MIC [8]: < 1 µg/mL
- MIC [9]: 1 to 2 µg/mL (≈ 1.34 to 2.68 µM)
- MIC [10]: > 64 µg/mL
- MIC [11]: 4 to 8 µg/mL (≈ 5.36 to 10.7 µM)
- MIC [12]: > 64 µg/mL
- MIC [13]: > 64 µg/mL
- MIC [14]: 16 to 32 µg/mL (≈ 21.5 to 42.9 µM)
- MIC [15]: 16 to 32 µg/mL (≈ 21.5 to 42.9 µM)

Compound: O=C(NCCN1CCN(C(=O)NC(C(=O)N[C@H]2Cc3ccc(F)c(C(=O)O)c3OB2O)c2cc(F)c(O)c(O)c2Cl)C(=O)C1=O)c1ccncc1 (stereo partly drawn) [Example 216, (3R)-3-(2-(2-chloro-5-fluoro-3,4-dihydroxyphenyl)-2-(4-(2-(isonicotinamido)ethyl)-2,3-dioxopiperazine-1-carboxamido)acetamido)-7-fluoro-2-hydroxy-3,4-dihydro-2H-benzo[e][1,2]oxaborinine-8-carboxylic acid]
- EC50 [1]: < 10 µM
- IC50 [2]: < 10 µM
- MIC [3]: < 1 µg/mL
- MIC [4]: < 1 µg/mL
- MIC [5]: < 1 µg/mL
- MIC [6]: < 1 µg/mL
- MIC [7]: > 128 µg/mL
- MIC [8]: < 1 µg/mL
- MIC [9]: 4 to 8 µg/mL (≈ 5.47 to 10.9 µM)
- MIC [10]: > 64 µg/mL
- MIC [11]: 4 to 8 µg/mL (≈ 5.47 to 10.9 µM)
- MIC [12]: > 64 µg/mL
- MIC [13]: > 64 µg/mL
- MIC [14]: 16 to 32 µg/mL (≈ 21.9 to 43.8 µM)
- MIC [15]: 16 to 32 µg/mL (≈ 21.9 to 43.8 µM)

Compound: O=C(NCCN1CCN(C(=O)NC(C(=O)N[C@H]2Cc3ccc(F)c(C(=O)O)c3OB2O)c2cc(F)c(O)c(O)c2Cl)C(=O)C1=O)c1cccnc1 (stereo partly drawn) [Example 217, (3R)-3-(2-(2-chloro-5-fluoro-3,4-dihydroxyphenyl)-2-(4-(2-(nicotinamido)ethyl)-2,3-dioxopiperazine-1-carboxamido)acetamido)-7-fluoro-2-hydroxy-3,4-dihydro-2H-benzo[e][1,2]oxaborinine-8-carboxylic acid]
- EC50 [1]: < 10 µM
- IC50 [2]: < 10 µM
- MIC [3]: 2 to 4 µg/mL (≈ 2.74 to 5.47 µM)
- MIC [4]: < 1 µg/mL
- MIC [5]: < 1 µg/mL
- MIC [6]: 2 to 4 µg/mL (≈ 2.74 to 5.47 µM)
- MIC [7]: > 128 µg/mL
- MIC [8]: < 1 µg/mL
- MIC [9]: 1 to 2 µg/mL (≈ 1.37 to 2.74 µM)
- MIC [10]: > 64 µg/mL
- MIC [11]: 16 to 32 µg/mL (≈ 21.9 to 43.8 µM)
- MIC [12]: > 64 µg/mL
- MIC [13]: > 64 µg/mL
- MIC [14]: 16 to 32 µg/mL (≈ 21.9 to 43.8 µM)
- MIC [15]: 16 to 32 µg/mL (≈ 21.9 to 43.8 µM)

Compound: O=C(NCCN1CCN(C(=O)NC(C(=O)N[C@H]2Cc3ccc(F)c(C(=O)O)c3OB2O)c2cc(F)c(O)c(O)c2Cl)C(=O)C1=O)c1nccs1 (stereo partly drawn) [Example 218, (3R)-3-(2-(2-chloro-5-fluoro-3,4-dihydroxyphenyl)-2-(2,3-dioxo-4-(2-(thiazole-2-carboxamido)ethyl)piperazine-1-carboxamido)acetamido)-7-fluoro-2-hydroxy-3,4-dihydro-2H-benzo[e][1,2]oxaborinine-8-carboxylic acid]
- EC50 [1]: < 10 µM
- IC50 [2]: < 10 µM
- MIC [3]: 2 to 4 µg/mL (≈ 2.71 to 5.43 µM)
- MIC [4]: < 1 µg/mL
- MIC [5]: < 1 µg/mL
- MIC [6]: < 1 µg/mL
- MIC [7]: 8 to 16 µg/mL (≈ 10.9 to 21.7 µM)
- MIC [8]: 2 to 4 µg/mL (≈ 2.71 to 5.43 µM)
- MIC [9]: 1 to 2 µg/mL (≈ 1.36 to 2.71 µM)
- MIC [10]: > 64 µg/mL
- MIC [11]: 16 to 32 µg/mL (≈ 21.7 to 43.4 µM)
- MIC [12]: > 64 µg/mL
- MIC [13]: > 64 µg/mL
- MIC [14]: > 64 µg/mL
- MIC [15]: 16 to 32 µg/mL (≈ 21.7 to 43.4 µM)

Compound: O=C(NCCN1CCN(C(=O)NC(C(=O)N[C@H]2Cc3ccc(F)c(C(=O)O)c3OB2O)c2cc(F)c(O)c(O)c2Cl)C(=O)C1=O)Nc1ccc(O)cc1 (stereo partly drawn) [Example 219, (3R)-3-(2-(2-chloro-5-fluoro-3,4-dihydroxyphenyl)-2-(4-(2-(3-(4-hydroxyphenyl)ureido)ethyl)-2,3-dioxopiperazine-1-carboxamido)acetamido)-7-fluoro-2-hydroxy-3,4-dihydro-2H-benzo[e][1,2]oxaborinine-8-carboxylic acid]
- EC50 [1]: < 10 µM
- IC50 [2]: < 10 µM
- MIC [3]: < 1 µg/mL
- MIC [4]: < 1 µg/mL
- MIC [5]: < 1 µg/mL
- MIC [6]: < 1 µg/mL
- MIC [7]: 8 to 16 µg/mL (≈ 10.5 to 21 µM)
- MIC [8]: 8 to 16 µg/mL (≈ 10.5 to 21 µM)
- MIC [9]: 1 to 2 µg/mL (≈ 1.31 to 2.63 µM)
- MIC [10]: > 64 µg/mL
- MIC [11]: 4 to 8 µg/mL (≈ 5.26 to 10.5 µM)
- MIC [12]: > 64 µg/mL
- MIC [13]: > 64 µg/mL
- MIC [14]: 16 to 32 µg/mL (≈ 21 to 42.1 µM)
- MIC [15]: > 64 µg/mL

Compound: O=C(NCCN1CCN(C(=O)NC(C(=O)N[C@H]2Cc3ccc(F)c(C(=O)O)c3OB2O)c2cc(F)c(O)c(O)c2Cl)C(=O)C1=O)Nc1cccc(O)c1 (stereo partly drawn) [Example 220, (3R)-3-(2-(2-chloro-5-fluoro-3,4-dihydroxyphenyl)-2-(4-(2-(3-(3-hydroxyphenyl)ureido)ethyl)-2,3-dioxopiperazine-1-carboxamido)acetamido)-7-fluoro-2-hydroxy-3,4-dihydro-2H-benzo[e][1,2]oxaborinine-8-carboxylic acid]
- EC50 [1]: < 10 µM
- IC50 [2]: < 10 µM
- MIC [3]: < 1 µg/mL
- MIC [4]: < 1 µg/mL
- MIC [5]: < 1 µg/mL
- MIC [6]: < 1 µg/mL
- MIC [7]: 8 to 16 µg/mL (≈ 10.5 to 21 µM)
- MIC [8]: 32 to 64 µg/mL (≈ 42.1 to 84.1 µM)
- MIC [9]: 1 to 2 µg/mL (≈ 1.31 to 2.63 µM)
- MIC [10]: > 64 µg/mL
- MIC [11]: 4 to 8 µg/mL (≈ 5.26 to 10.5 µM)
- MIC [12]: > 64 µg/mL
- MIC [13]: > 64 µg/mL
- MIC [14]: > 64 µg/mL
- MIC [15]: > 64 µg/mL

Compound: O=C(NCCN1CCN(C(=O)N[C@@H](C(=O)N[C@H]2Cc3ccc(F)c(C(=O)O)c3OB2O)c2cc(F)c(O)c(O)c2Cl)C(=O)C1=O)Nc1ccncc1 [Example 221, (R)-3-((R)-2-(2-chloro-5-fluoro-3,4-dihydroxyphenyl)-2-(2,3-dioxo-4-(2-(3-(pyridin-4-yl)ureido)ethyl)piperazine-1-carboxamido)acetamido)-7-fluoro-2-hydroxy-3,4-dihydro-2H-benzo[e][1,2]oxaborinine-8-carboxylic acid]
- EC50 [1]: < 10 µM
- IC50 [2]: < 10 µM
- MIC [3]: < 1 µg/mL
- MIC [4]: < 1 µg/mL
- MIC [5]: < 1 µg/mL
- MIC [6]: < 1 µg/mL
- MIC [7]: 32 to 64 µg/mL (≈ 42.9 to 85.8 µM)
- MIC [8]: < 1 µg/mL
- MIC [9]: 1 to 2 µg/mL (≈ 1.34 to 2.68 µM)
- MIC [10]: > 64 µg/mL
- MIC [11]: 4 to 8 µg/mL (≈ 5.36 to 10.7 µM)
- MIC [12]: > 64 µg/mL
- MIC [13]: > 64 µg/mL
- MIC [14]: > 64 µg/mL
- MIC [15]: > 64 µg/mL
